Results from patent US20110020471A1, “ERYTHROCYTE ATP-RELEASE MODULATORS” (Wayne State University, priority 2007, published 2011).

Experiments:
[1] = tested on: rabbit red blood cells (RBCs); assay: Deformation-induced ATP release from rabbit RBCs pumped through microbore tubing (luciferin/luciferase chemiluminescence); format: cell-based
Protocol: (§1) Preparation of RBCs. Rabbits (New Zealand whites, males, 2.0-2.5 kg) were anesthetized with ketamine ([…], i.m.) and xylazine (1 mg/kg, i.m.) followed by pentobarbital sodium (15 mg/kg i.v.). A cannula was placed in the trachea and the animals were ventilated with room air. A catheter was placed into a carotid artery for administration of heparin and for phlebotomy. After heparin (500 units, i.v.), the animals were exsanguinated. Human blood was obtained by venipuncture without the use of a tourniquet (antecubital fossa) and collected into a heparinized syringe. Blood was centrifuged at 500×g at 4 C for 10 min. The plasma and buffy coat were discarded. The RBCs were resuspended and washed three times in a physiological salt solution [PSS, containing in mM: 4.7 KCl, 2.0 CaCl2, 140.5 NaCl […], 21.0 tris(hydroxymethyl)aminomethane, 11.1 dextrose with 5% bovine serum albumin (final pH 7.4)]. Cells were prepared on the day of use and experiments were finished within 8 hours of removal from the animal or human subjects. All procedures were approved by the Animal Investigation Committee or the Human Investigation Committee at Wayne State University.
(§2) Measurement of ATP. Human C-peptide (American Peptide Co., Sunnyvale, Calif.), 0.25 mg (MW=3020 g/mol), was dissolved in […] of purified water (18.2 megaohm) to yield a concentration of 83 μM. […] The resulting chemluminescence reaction flowed through a final potion of fused-silica microbore tubing that was placed over a photomultiplier tube, where the emission was detected. The resultant current was measured as a potential by a data acquisition board operated by a program written with the LabView software package (National Instruments, Austin, Tex.).
Introduction. […] Upon deformation in the tubing, the RBCs release ATP that is measured using a well-established chemiluminescence assay for ATP. The concentrations of RBC-derived ATP are measured in the presence and absence of synthetic C-peptide.
C-Peptide-Induced Release of ATP. RBCs obtained from rabbits are pumped through microbore tubing having an inside diameter of […] and the resultant ATP released by the cells upon deformation in the tubing is measured. […] Another aliquot from the same RBC sample is incubated in 1 nM C-peptide and the resultant ATP release measured every 2 h for a period up to 6 h. […] As shown, the ATP release (determined by a chemiluminescence assay) from those cells incubated in the c-peptide increased approximately 2.9 times over a period of […]. […] If cell lysis were occurring, the glybenclamide would have no affect on the measured ATP as it would be present in extracellular form whether or not glybenclamide was introduced to the RBCs. […]

RBCs [2] = assay: Lysis control: ATP signal of RBC solutions under non-flow conditions (luminometer); format: cell-based; settings: 200 μL RBC solution and 200 μL luciferin/luciferase
Protocol: To ensure that the resulting increase in ATP release was due to C-peptide interacting with the RBCs and not cell lysis, the RBC solutions were measured under non-flow conditions using a luminometer with 200 μL of the RBC solution and 200 μL of the luciferin/luciferase solution. […] To ensure that lysis was not occurring in the tubing, a solution of 0.01 M glybenclamide was prepared by adding 49 mg of glybenclamide (Sigma) to 2 mL of a 0.1 M solution of sodium hydroxide. To this, 7.94 mL of a dextrose solution (1 g dextrose in 20 mL of purified water) was added. The mixture was heated carefully to 52° C. until all of the glybenclamide was dissolved. Once the solute was completely dissolved, 1 mL of this solution was added to 9 mL of PSS, resulting in a solution with a concentration 0.001 M. From this diluted solution, 2.5 mL were added to 2.5 mL of 7% hematocrit RBC solution, resulting in a 3.5% hematocrit solution of RBCs. This solution was allowed to incubate for 15 minutes. As a comparison, 2.5 mL of wash buffer without glybenclamide was added to 2.5 mL of 7% hematocrit RBCs. After 15 minutes, the RBC solutions were assayed.

diabetic human RBCs = assay: ATP release from RBCs of patients with type II diabetes; format: cell-based; settings: for ATP release: diabetic human RBCs, ±SEM (n=7)
Protocol: as §1
as §2, with “μM. Next, an appropriate volume of this C-peptide solution was added to 10 mL of a 7% solution of RBCs to create a solution containing the C-peptide at concentrations in the 1-5 nM range.” for “μM.”, “Tex.). […]” for “Tex.).”

RBCs [3] = assay: Loss of ATP-release bioactivity of C-peptide preparation in water (metaanalysis of repeats of Experiments 1 and 2); format: cell-based
[4] = Electrospray ionization mass spectrometry of C-peptide and metal adducts in aqueous solution; format: physicochemical; settings: ESI-MS, remaining in solution for periods >30 days
Protocol: Mass Spectrometric Analysis of Metal-Peptide Binding. […] Thus, alternative postulated causes are tested, including that a covalent modification of the peptide, e.g., induction or lysis of a side-chain-to-side-chain bond or of a moiety covalently attached to an amino acid residue, might be involved, or that non-covalent interaction with another chemical species, e.g., a metal ion, might be involved in this effect.
The data in FIG. 3 reveal some information about the possible loss of activity of the C-peptide after preparation in the aqueous solvent. Specifically, the mass spectrum shown in FIG. 3a is that of peptide prepared in water and analyzed within 0.5 h of preparation. In 3a, the [M+3H]^3+ peak is present as are other forms of the peptide with sodium atoms, potassium atoms, or a combination thereof. […] The presence of this Fe(II) adduct to the C-peptide is not present 24 h after preparation.
Although the Fe(II)-bound C-peptide has the ability to increase ATP-release from deformed RBCs, its activity also appears somewhat limited. […] The unexpected result is that the population of Fe(II)-C-peptide adduct begins to diminish within 24 h after the addition of an Fe(II) source, and Fe(II) is then replaced by either sodium or potassium, or both, cations in the C-peptide complex.
Improving Metal-Induced Activity of C-Peptide. […]

With COc1ccc(Cl)cc1C(=O)NCCc1ccc(S(=O)(=O)NC(=O)NC2CCCCC2)cc1 [glybenclamide, reference compound] the “effect on the C-peptide-induced increase in ATP release” value ([1]; RBCs incubated in glybenclamide) was “can be inhibited”.

In the case of “C-peptide: Human proinsulin C-peptide (American Peptide Co.), MW 3020 g/mol, synthetic (EAEDLQVGQVELGGGPGAGSLQPLALEGSLQ; (1)..(31) Hominidae sp. proinsulin C-peptide Human (Genbank P01308..gi124617), Chimpanzee (Genbank NP_001008996.1.. gi57113877), Orangutan (Genbank Q8HXV2..gi48428254), and Gorilla (Genbank AAM76640.1..gi23379796); listed as Hominidae sp.)”, the “ATP signal under non-flow conditions” value (RBCs [2]) is reported as “No detectable signals”, the “restoration of ATP release levels of diabetic RBCs” value (diabetic human RBCs; RBCs of patients with type II diabetes (n=7)) is reported as “statistically equivalent to that of healthy, non-diabetic control patients” and the ATP release (diabetic human RBCs; after 6 hours of incubation with freshly prepared C-peptide preparation) is reported as 256.1 ± 38.7 nM. The ATP release (diabetic human RBCs; at 0 hours, freshly prepared C-peptide preparation) was 63.6 ± 12.6 nM, the “time to loss of bioactivity after preparation in water” value (RBCs [3]) was 24 to 36 h and the “degradation or cleavage of the peptide in solution” value [4] was “not undergoing any type of degradation or cleavage”. The “increase in ATP release versus control (buffer without C-peptide)” value ([1]; 1 nM C-peptide, over the 6 h period) was “nearly three times that of the RBCs incubated with a control”, the “increase in ATP release” value ([1]; 1 nM c-peptide, over a period of 8 h, normalized values) was “approximately 2.9 times” and the “ability to induce ATP release from deformed RBCs” value ([1]; C-peptide kept at 4° C. for >30 days) was “no longer has the ability to induce ATP release from deformed RBCs”.
